Our source for the AUC(0-t) and IC50 values is ChEMBL document CHEMBL4823249, “Discovery of a Pyrimidinedione Derivative as a Potent and Orally Bioavailable Axl Inhibitor” (J Med Chem, 2021).

Data set [1] can be described thus: AUC(0 to t) in ICR mouse at 3 mg/kg, po measured upto 24 hrs by LC-MS analysis. It counts as ADME, organism-based. Set-up: route oral, dose 3 mg/kg, time <=24. Particulars: in vivo.
In data set [2] the target is Vascular endothelial growth factor receptor 1 (Homo sapiens, UniProt P17948). The experiment in a line: Inhibition of recombinant human FLT1 (783 to end residues) using KKKSPGEYVNIEFG as substrate incubated for 40 mins in presence of [gamma-33ATP] by scintillation counting based radiometry assay.
Data set [3] concerns the target Vascular endothelial growth factor receptor 2 (Homo sapiens, UniProt P35968). The experiment in a line: Inhibition of recombinant human KDR (790 to end residues) using myelin basic protein as substrate incubated for 40 mins by [gamma-33P]-ATP scintillation counting based radiometry assay.
The target in data set [4] is Platelet-derived growth factor receptor beta (Homo sapiens, UniProt P09619). The experiment in a line: Inhibition of human PDGFRbeta (557 to end residues) using poly(Glu, Tyr) 4:1 as substrate measured after 40 mins in presence of [gamma33P]ATP by scintillation counting based radiometry assay.
The target in data set [5] is Mitogen-activated protein kinase 1 (Homo sapiens, UniProt P28482). The experiment in a line: Inhibition of human full length recombinant ERK2 using myelin basic protein as substrate incubated for 40 mins in presence of [gamma33P-ATP] by radiometric scintillation counting analysis.
For data set [6], the target named is Serine/threonine-protein kinase mTOR (Homo sapiens, UniProt P42345). The experiment in a line: Inhibition of full length recombinant human mTOR incubated for 40 mins in presence of [gamma-33ATP] by scintillation counting based radiometry assay.
The nature of data set [7]: Inhibition of recombinant human PKA using Kemptide as substrate measured after 40 mins in presence of [gamma33P]ATP by scintillation counting based radiometry assay.
The next data set deals with CDK6/cyclin D3 (Homo sapiens, UniProt Q00534). The experiment in a line: Inhibition of recombinant full length human CDK6/CyclinD3C using Rb fragment as substrate incubated for 40 mins in presence of [gamma-33ATP] by scintillation counting based radiometry assay. The class given is protein-complex assay.
Another data set concerns EBC-1. The experiment in a line: Antiproliferative activity against human EBC-1 cells incubated for 72 hrs by SRB or CCK8 assay. The class given is functional, cell-based. The settings on record: EBC-1, 72 h.
In a further data set the test system is HL-60. The experiment in a line: Antiproliferative activity against human HL-60 cells incubated for 72 hrs by SRB or CCK8 assay. The settings on record: HL-60, 72 h. The class given is functional, cell-based.

Mitogen-activated protein kinase 1, sequence (P28482 whole entry): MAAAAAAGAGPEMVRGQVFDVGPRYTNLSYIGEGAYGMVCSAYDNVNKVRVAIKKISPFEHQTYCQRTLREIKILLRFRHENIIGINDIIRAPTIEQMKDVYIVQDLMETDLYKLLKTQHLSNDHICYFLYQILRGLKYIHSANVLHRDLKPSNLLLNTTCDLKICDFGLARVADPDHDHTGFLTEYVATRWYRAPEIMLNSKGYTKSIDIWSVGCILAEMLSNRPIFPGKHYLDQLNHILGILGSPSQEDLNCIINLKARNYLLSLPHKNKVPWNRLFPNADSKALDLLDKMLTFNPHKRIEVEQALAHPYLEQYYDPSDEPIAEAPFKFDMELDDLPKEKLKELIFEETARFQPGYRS
Platelet-derived growth factor receptor beta, sequence (P09619 whole entry): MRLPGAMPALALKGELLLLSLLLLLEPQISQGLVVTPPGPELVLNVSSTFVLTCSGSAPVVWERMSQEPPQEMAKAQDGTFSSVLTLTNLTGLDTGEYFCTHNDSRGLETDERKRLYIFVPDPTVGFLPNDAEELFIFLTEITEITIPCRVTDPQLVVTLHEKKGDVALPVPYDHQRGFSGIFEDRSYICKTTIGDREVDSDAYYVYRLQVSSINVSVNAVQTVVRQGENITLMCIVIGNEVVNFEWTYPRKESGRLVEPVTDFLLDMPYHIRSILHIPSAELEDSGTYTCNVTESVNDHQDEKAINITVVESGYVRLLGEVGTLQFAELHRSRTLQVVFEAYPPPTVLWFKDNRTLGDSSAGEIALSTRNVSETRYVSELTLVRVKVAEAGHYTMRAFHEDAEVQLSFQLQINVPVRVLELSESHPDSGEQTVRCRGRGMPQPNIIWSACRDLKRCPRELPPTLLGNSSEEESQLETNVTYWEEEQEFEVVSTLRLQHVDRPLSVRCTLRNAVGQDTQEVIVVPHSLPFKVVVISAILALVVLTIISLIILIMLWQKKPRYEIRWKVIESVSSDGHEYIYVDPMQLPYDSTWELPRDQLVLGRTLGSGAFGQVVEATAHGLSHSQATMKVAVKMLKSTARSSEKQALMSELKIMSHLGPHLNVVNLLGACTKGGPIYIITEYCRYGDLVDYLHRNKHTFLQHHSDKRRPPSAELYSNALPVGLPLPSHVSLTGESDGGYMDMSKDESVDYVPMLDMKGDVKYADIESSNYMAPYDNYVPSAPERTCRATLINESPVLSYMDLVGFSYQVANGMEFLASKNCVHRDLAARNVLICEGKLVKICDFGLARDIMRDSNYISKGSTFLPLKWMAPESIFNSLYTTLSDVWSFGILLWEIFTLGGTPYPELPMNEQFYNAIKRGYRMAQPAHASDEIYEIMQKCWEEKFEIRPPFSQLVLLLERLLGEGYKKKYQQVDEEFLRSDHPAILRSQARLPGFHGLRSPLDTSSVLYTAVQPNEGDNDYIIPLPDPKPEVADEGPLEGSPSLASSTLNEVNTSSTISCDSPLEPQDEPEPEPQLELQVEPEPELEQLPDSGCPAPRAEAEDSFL
Vascular endothelial growth factor receptor 2, sequence (P35968 whole entry): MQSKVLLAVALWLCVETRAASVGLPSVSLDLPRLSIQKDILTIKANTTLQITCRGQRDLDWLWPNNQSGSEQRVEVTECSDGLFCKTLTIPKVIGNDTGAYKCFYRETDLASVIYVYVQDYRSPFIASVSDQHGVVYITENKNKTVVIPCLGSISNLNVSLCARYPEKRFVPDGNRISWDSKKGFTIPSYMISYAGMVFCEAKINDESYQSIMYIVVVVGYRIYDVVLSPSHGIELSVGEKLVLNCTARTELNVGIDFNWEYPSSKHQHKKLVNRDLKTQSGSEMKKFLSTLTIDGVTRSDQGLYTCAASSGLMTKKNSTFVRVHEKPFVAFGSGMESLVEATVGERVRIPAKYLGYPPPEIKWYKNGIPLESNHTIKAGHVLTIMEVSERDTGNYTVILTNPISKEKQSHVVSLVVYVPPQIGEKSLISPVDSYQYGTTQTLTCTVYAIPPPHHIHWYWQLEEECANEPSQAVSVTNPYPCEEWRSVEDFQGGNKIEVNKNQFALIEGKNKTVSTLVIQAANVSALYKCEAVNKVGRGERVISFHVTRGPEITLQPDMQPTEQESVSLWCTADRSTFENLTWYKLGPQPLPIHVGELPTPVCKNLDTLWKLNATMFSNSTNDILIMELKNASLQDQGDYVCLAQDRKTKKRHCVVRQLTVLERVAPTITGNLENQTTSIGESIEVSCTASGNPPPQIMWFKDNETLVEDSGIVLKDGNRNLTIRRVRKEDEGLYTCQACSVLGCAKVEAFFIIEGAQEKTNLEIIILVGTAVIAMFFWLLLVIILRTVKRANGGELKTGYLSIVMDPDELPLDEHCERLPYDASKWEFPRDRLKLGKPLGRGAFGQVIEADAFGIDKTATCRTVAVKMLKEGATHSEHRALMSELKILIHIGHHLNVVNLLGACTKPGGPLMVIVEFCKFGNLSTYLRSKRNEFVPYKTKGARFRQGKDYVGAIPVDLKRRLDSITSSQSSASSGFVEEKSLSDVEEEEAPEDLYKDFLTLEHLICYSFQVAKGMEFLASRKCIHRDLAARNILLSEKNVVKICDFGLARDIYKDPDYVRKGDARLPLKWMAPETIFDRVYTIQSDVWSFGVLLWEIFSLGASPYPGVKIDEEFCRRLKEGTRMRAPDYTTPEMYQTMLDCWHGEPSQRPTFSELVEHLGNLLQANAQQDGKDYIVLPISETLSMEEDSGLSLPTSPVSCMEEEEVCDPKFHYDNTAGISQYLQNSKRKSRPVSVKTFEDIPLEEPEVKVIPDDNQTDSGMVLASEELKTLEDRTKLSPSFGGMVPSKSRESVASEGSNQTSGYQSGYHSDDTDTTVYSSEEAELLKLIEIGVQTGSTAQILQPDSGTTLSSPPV
Vascular endothelial growth factor receptor 1, sequence (P17948 whole entry): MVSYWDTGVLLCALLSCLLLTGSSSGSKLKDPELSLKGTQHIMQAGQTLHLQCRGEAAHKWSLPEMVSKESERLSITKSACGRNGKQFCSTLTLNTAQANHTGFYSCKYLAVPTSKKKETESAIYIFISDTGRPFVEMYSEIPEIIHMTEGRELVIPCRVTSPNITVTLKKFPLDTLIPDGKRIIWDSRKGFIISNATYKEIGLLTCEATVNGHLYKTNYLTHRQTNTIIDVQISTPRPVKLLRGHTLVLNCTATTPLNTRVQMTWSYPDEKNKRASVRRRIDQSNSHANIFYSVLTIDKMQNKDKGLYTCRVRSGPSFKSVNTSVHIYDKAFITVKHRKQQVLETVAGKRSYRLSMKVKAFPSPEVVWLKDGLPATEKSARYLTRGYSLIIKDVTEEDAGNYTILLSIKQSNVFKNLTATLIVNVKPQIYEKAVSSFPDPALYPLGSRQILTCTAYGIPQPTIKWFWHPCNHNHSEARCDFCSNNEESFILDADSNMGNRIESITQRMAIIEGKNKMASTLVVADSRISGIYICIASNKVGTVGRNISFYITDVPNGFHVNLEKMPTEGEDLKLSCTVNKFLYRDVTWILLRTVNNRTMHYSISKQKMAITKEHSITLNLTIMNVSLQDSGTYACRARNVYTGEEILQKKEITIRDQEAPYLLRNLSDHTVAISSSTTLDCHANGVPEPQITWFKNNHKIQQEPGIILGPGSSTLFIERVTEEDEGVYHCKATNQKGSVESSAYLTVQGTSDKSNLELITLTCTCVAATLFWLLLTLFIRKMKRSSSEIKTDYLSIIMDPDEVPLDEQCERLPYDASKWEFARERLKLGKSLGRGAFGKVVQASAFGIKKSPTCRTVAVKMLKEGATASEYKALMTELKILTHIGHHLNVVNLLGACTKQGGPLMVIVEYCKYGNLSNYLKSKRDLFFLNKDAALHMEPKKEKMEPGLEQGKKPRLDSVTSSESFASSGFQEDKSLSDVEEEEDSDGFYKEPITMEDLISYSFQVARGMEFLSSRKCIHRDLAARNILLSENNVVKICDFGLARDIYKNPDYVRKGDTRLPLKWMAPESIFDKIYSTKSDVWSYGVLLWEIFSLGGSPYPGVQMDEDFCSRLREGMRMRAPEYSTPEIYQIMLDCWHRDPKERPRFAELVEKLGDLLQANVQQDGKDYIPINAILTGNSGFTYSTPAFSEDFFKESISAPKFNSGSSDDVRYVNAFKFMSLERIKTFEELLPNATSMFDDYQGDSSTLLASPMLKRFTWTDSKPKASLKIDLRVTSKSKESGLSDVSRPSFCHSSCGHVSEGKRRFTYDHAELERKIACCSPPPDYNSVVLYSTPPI
CDK6/cyclin D3, sequence (P30281 whole entry, the tested form may be a part): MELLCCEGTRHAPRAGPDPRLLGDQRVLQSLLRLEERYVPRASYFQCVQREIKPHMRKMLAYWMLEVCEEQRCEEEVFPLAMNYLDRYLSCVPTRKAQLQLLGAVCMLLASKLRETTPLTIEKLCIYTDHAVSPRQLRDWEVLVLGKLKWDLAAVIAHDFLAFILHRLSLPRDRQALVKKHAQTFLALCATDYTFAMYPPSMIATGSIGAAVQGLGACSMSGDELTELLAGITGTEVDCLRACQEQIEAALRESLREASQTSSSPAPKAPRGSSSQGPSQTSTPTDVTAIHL
CDK6/cyclin D3, sequence (Q00534 whole entry, the tested form may be a part): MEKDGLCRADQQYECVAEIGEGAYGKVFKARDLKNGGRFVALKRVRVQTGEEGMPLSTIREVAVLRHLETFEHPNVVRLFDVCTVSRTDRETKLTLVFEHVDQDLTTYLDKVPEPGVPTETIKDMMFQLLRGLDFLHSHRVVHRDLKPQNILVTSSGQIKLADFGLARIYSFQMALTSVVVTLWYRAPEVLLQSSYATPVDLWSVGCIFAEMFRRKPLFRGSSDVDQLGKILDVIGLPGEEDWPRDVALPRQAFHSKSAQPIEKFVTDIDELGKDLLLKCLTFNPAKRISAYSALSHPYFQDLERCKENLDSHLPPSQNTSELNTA

As to `CC(C)n1cc(C(=O)Nc2ccc(Oc3ccnc(NC(=O)C4CC4)c3)c(F)c2)c(=O)n(-c2ccc(F)cc2)c1=O`, the AUC(0-t) at 24 h in data set [1] turned out to be 24000 ng·h/mL. Besides, the IC50 in data set [2], in data set [3], in data set [4], in data set [5], in data set [6] and in [7] was more than 1000 nM in each case. The IC50 at CDK6/cyclin D3 is more than 1000 nM; in the data set with EBC-1 it was 64 nM; in the data set on HL-60, more than 10000 nM.
